Assay results reported in patent US20220193256A1, “NANO-ANTIBIOTICS BASED ON SINGLE-CHAIN DEXTRAN NANOPARTICLES” (priority 2019, published 2022).
≈ marks a conversion by molar mass, not a printed value. Marks after values point to notes of the source that are not given here.

Assays:
[1] = test system: P. aeruginosa; test: MIC 50 of free antibiotics and nanoconjugates; type: cell-based
Description: (§1) All test and quality control strains were recovered from frozen storage (−80° C.) and cultured at 35±2° C. for 18-24 h.
(§2) All test articles were dissolved in sterile ultra-pure water at a concentration of 2.56 mg/mL. […] 100 and 200 μL of drug-free medium was added to positive and negative control wells, respectively. Suspensions equivalent to a McFarland 0.5 standard were prepared for each test strain in 5 mL sterile phosphate-buffered saline (PBS) and further diluted 1:150 in CA-MHB to provide an inoculum of 2-8×10^5 CFU/mL. 100 μL of each inoculum was dispensed into all wells—except negative control wells (100 μL sterile water added)—to provide an inoculum of ˜5×10^5 CFU/well and a final volume of 200 μL per well. Assay plates were incubated according to CLSI M07-A10 guidelines of 35±2° C. for 16-20 h in air.

[2] = test system: S. aureus; test: MIC 50 of free antibiotics and nanoconjugates; type: cell-based
Description: as §1, §2

[3] = In vivo pharmacokinetic profile in the lungs after oropharyngeal deposition; set-up: species or system Sprague Dawley rats; details: male, Sprague Dawley, rat, lung homogenate, other: oropharyngeal deposition, 10 mg/kg
Description: The administration technique was oropharyngeal deposition. Following administration, terminal lung samples were collected at the following time-points: 0.083, 0.25, 0.5, 1, 2, 4, 8, 12, 24 h post-dose.
For the purpose of the invention, the AUC was measured by the trapezoidal method using the following formula: […]

[4] = test system: A. baumannii NCTC 12156; test: MIC, antimicrobial susceptibility test (CLSI M07-A10); type: cell-based
Description: as §1, §2

[5] = test system: K. pneumoniae ATCC 43816; test: as above; type: cell-based
Description: as §1, §2

[6] = test system: E. coli ATCC 25922; test: as above; type: cell-based
Description: as §1, §2

[7] = test system: E. aerogenes KPC 108; test: as above; type: cell-based
Description: as §1, §2

[8] = test system: E. coli ATCC BAA-2469; test: as above; type: cell-based; details: Escherichia coli, ATCCBAA2469; read-out: Test Article MIC
Description: as §1, §2

[9] = test system: P. aeruginosa ATCC 27853; test: as above; type: cell-based
Description: as §1, §2

[10] = test system: E. cloacae complex KPC 114; test: as above; type: cell-based
Description: as §1, §2

[11] = test system: P. aeruginosa ATCC 13437; test: as above; type: cell-based; details: replicates 1 and 2, as tobramycin concentration
Description: as §1, §2

[12] = test system: A. baumannii ATCC BAA-747; test: as above; type: cell-based
Description: as §1, §2

[13] = test system: K. pneumoniae ATCC BAA-2146; test: as above; type: cell-based; details: Klebsiella pneumoniae, ATCCBAA2146; read-out: Test Article MIC
Description: as §1, §2

[14] = test system: biofilm of Pseudomonas Aeruginosa PAO1 gfp; test: Testing against biofilm; type: cell-based; details: 3-day biofilm treated for 12 h, tobramycin concentration 2 μg/mL
Description: Continuous biofilm of Pseudomonas Aeruginosa PAO1 gfp in LB medium was grown for 3 days. […] Images were obtained using a 20×/0.80 air objective with Zeiss LSM 800 Confocal laser scanning microscope. Simulated fluorescence projections and orthogonoal views sections were processed using ImageJ software. Data were analysed with COMSTAT2 software.

[15] = test system: PACC#6; test: MIC by visual inspection, P. aeruginosa panel; type: cell-based; details: Pseudomonas aeruginosa; read-out: Test Article MIC
Description: (§3) The clinical isolates were obtained from the Biobank of the Hospital Donostia/Biodonostia (San Sebastian, Spain) with permission. MIC is obtained by visual inspection and considered the minimum concentration at which no bacterial growth can be detected (i. e. the buffer appears transparent) when bacteria was incubated at gradient concentration of test compound.

[16] = test system: PA14 DSMZ 19882; test: MIC by visual inspection, P. aeruginosa panel; type: cell-based; details: Pseudomonas aeruginosa; PA14 DSMZ 19882, investigational strain; read-out: Test Article MIC
Description: as §3

[17] = test system: PACC#8; test: MIC by visual inspection, P. aeruginosa panel; type: cell-based; details: Pseudomonas aeruginosa; PACC#8, clinical isolate; read-out: Test Article MIC
Description: as §3

[18] = test system: PACC#10; test: MIC by visual inspection, P. aeruginosa panel; type: cell-based; details: Pseudomonas aeruginosa; PACC#10, clinical isolate, mucoid phenotype; read-out: Test Article MIC
Description: as §3

[19] = test system: PACC#7; test: MIC by visual inspection, P. aeruginosa panel; type: cell-based; details: Pseudomonas aeruginosa; PACC#7, clinical isolate, mucoid phenotype; read-out: Test Article MIC
Description: as §3

[20] = test system: PACC#9; test: MIC by visual inspection, P. aeruginosa panel; type: cell-based; details: Pseudomonas aeruginosa; PACC#9, clinical isolate, mucoid phenotype; read-out: Test Article MIC
Description: as §3

[21] = test system: PAO1 DSMZ 22644; test: MIC by visual inspection, P. aeruginosa panel; type: cell-based; details: Pseudomonas aeruginosa; PAO1 DSMZ 22644, investigational strain; read-out: Test Article MIC
Description: as §3

[22] = test system: PACC#5; test: MIC by visual inspection, P. aeruginosa panel; type: cell-based; details: Pseudomonas aeruginosa; PACC#5, clinical isolate, mucoid phenotype; read-out: Test Article MIC
Description: as §3

[23] = test system: P. aeruginosa ATCC 27853; test: MIC by visual inspection, P. aeruginosa panel; type: cell-based; details: Pseudomonas aeruginosa, ATCC27853; P. aeruginosa ATCC 27853, reference strain; read-out: Test Article MIC
Description: as §3

[24] = Release profile test of tobramycin in PBS (dialysis tubes, LC-MS); type: in vitro ADME; details: PBS pH 7.4, 37° C.
Description: 1 mL dialysis tubes (Float-a-lyzer®) were used whose membrane is based on MWCO 8-10 kDa cellulose ester. […] The studies were performed in a chamber at 37° C. and stirring at 250 rpm. Samples were taken at different times and analyzed by LC-MS.

gentamycin sulfate [Free Gentamycin sulfate]
MIC 50, Antibiotic conc. [1]: 1 to 5 µg/mL | MIC 50, Antibiotic conc. [2]: 1 to 5 µg/mL

Colistin sulfate [Free Colistin sulfate]
MIC 50, Antibiotic conc. [1]: 1 to 5 µg/mL

NC[C@H]1O[C@H](O[C@H]2[C@H](O)[C@@H](O[C@H]3O[C@H](CO)[C@@H](O)[C@H](N)[C@H]3O)[C@H](N)C[C@@H]2N)[C@H](N)C[C@@H]1O [Tobramycin, tobramycin]
AUC [3]: 1110 µg·h/mL | Test Article MIC ([4]; A. baumannii NCTC 12156, replicates 1 and 2, as tobramycin concentration): 4 µg/mL | MIC ([4]; Acinetobacter baumannii, NCTC12156, read-out: Test Article MIC): 4 µg/mL (≈ 8.56 µM) | Test Article MIC ([5]; K. pneumoniae ATCC 43816, replicates 1 and 2, as tobramycin concentration): 0.5 µg/mL | MIC ([5]; Klebsiella pneumoniae, ATCC43816, read-out: Test Article MIC): 0.5 µg/mL (≈ 1.07 µM) | Test Article MIC ([6]; E. coli ATCC 25922, replicates 1 and 2, as tobramycin concentration): 2^a μg/mL | MIC ([6]; Escherichia coli, ATCC25922, read-out: Test Article MIC): 2 µg/mL (≈ 4.28 µM) | Test Article MIC ([7]; E. aerogenes KPC 108, replicates 1 and 2, as tobramycin concentration): 4 µg/mL | MIC ([7]; Klebsiella aerogenes, KPC108, read-out: Test Article MIC): 4 µg/mL (≈ 8.56 µM) | MIC [8]: > 128 µg/mL | Test Article MIC ([9]; P. aeruginosa ATCC 27853, replicates 1 and 2, as tobramycin concentration): 1^b μg/mL | MIC ([9]; Pseudomonas aeruginosa, ATCC27853, read-out: Test Article MIC): 1 µg/mL (≈ 2.14 µM) | Test Article MIC ([10]; E. cloacae complex KPC 114, replicates 1 and 2, as tobramycin concentration): 32 µg/mL | MIC ([10]; Enterobacter cloacae, read-out: Test Article MIC): 32 µg/mL (≈ 68.4 µM) | Test Article MIC ([11]; P. aeruginosa ATCC 13437, listed as Free Tobramycin): 64 µg/mL | MIC ([11]; Pseudomonas aeruginosa, ATCC13437, P. aeruginosa ATCC 13437, read-out: Test Article MIC): 128 µg/mL (≈ 274 µM) | Test Article MIC ([12]; A. baumannii ATCC BAA-747, replicates 1 and 2, as tobramycin concentration): 0.5 µg/mL | MIC ([12]; Acinetobacter baumannii, ATCCBAA747, read-out: Test Article MIC): 0.5 µg/mL (≈ 1.07 µM) | MIC [13]: > 128 µg/mL | % Biomass (μm^3/μm^2) [14]: 68.1% | % Biomass (μm^3/μm^2) ([14]; listed as tobramycin): 68.1% | MIC 50, Antibiotic conc. [1]: 0.5 to 1 µg/mL | MIC 50, Antibiotic conc. [2]: 0.5 to 1 µg/mL | MIC [15]: ≥ 4 µg/mL | MIC [16]: 0.5 µg/mL (≈ 1.07 µM) | MIC [17]: 0.5 µg/mL (≈ 1.07 µM) | MIC [18]: 1 µg/mL (≈ 2.14 µM) | MIC [19]: 0.5 µg/mL (≈ 1.07 µM) | MIC [20]: 0.5 µg/mL (≈ 1.07 µM) | MIC [21]: 0.5 µg/mL (≈ 1.07 µM) | MIC [22]: 0.5 µg/mL (≈ 1.07 µM) | MIC [23]: 0.5 µg/mL (≈ 1.07 µM) | Tobramycin released (%) ([24]; time 0 hour): 0.30% | Tobramycin released (%) ([24]; time 1 hour): 2.91% | Tobramycin released (%) ([24]; time 2 hour): 7.57% | Tobramycin released (%) ([24]; time 4 hour): 19.03% | Tobramycin released (%) ([24]; time 8 hour): 28.72% | Tobramycin released (%) ([24]; time 24 hour): 58.41% | Tobramycin released (%) ([24]; time 48 hour): 78.88% | Tobramycin released (%) ([24]; time 72 hour): 87.20%
